These results are taken from patent US20210198277A1, “AMINE-SUBSTITUTED ARYL OR HETEROARYL COMPOUNDS” (Epizyme, Inc., priority 2016, published 2021).

As usually defined, the IC50 is the concentration that gives 50% inhibition.

Like-named read-outs stand apart in the source and are kept apart here.

The target in this experiment is T1, human EHMT2 913-1193 (Homo sapiens, UniProt Q96KQ7).
T1 construct: recombinant purified human EHMT2 913-1193, Viva; purchased Viva
T1 sequence (Q96KQ7 913-1193): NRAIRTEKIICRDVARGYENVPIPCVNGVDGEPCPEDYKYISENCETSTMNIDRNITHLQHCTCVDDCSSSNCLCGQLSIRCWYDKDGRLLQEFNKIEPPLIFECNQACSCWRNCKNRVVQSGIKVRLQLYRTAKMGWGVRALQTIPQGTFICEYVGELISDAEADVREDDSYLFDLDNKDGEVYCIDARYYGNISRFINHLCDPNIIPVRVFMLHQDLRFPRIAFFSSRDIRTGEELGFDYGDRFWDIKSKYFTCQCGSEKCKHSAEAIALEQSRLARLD
The experiment in a line: EHMT2 enzyme assay on histone peptide substrate (EHMT2 PEP). The experiment is classed as biochemical. As to conditions: read-out: EHMT2 PEP (IC50 μM). In short, it runs like this: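 10-pt 3-fold series, 50 μM top final, 2% DMSO; 30 min preinc w/ 0.031 nM enzyme; pH 7.5 Bicine/TCEP buffer; ^3H-SAM + biotin-histone peptide, 60 min RT; SAM quench; streptavidin Flashplate capture, TopCount.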

Take `CNc1ccnc(Nc2ccc(OC)c(OC[C@H](O)CN3CCCC3)c2)n1` (single isomer, unassigned) [Compound 376]: under “Table III”, the IC50 is 1 to 10 µM.

As to `CNc1ccnc(Nc2ccc(OC)c(OC[C@@H](O)CN3CCCC3)c2)n1` (single isomer, unassigned) [Compound 377], the IC50 (Table III) was in the range of 1 to 10 µM.

Take `CNc1ccnc(Nc2ccc(OC)c(OCC3CCN(C)C3)c2)n1` (single isomer, unassigned) [Compound 415]: under “Table III”, the IC50 lay in the range of 1 to 10 µM.

Turning to `CNc1ccnc(Nc2ccc(OC)c(OCC3CCN(C)C3)c2)n1` (single isomer, unassigned) [Compound 416], the IC50 (Table III) was under 0.1 µM.

As to `CNc1cc(C)nc(Nc2ccc(OC)c(OCC3CCN(C)C3)c2)n1` (single isomer, unassigned) [Compound 417], where the note is “Table III”, the IC50 is 0.1 to 1 µM.

Regarding `CNc1cc(C)nc(Nc2ccc(OC)c(OCC3CCN(C)C3)c2)n1` (single isomer, unassigned) [Compound 418], under “Table III”, the IC50 is under 0.1 µM.

As to `CNc1ccnc(Nc2ccc(OC)c(OCCCN3CCCC3)c2)n1` [Compound 1, N^2-(4-methoxy-3-(3-(pyrrolidin-1-yl)propoxy)phenyl)-N^4-methylpyrimidine-2,4-diamine], the half-maximal inhibitory concentration (IC50) (Table II) was under 0.1 µM.

Take `COc1ccc(Nc2nccc(NCC3CCN(CC(F)F)CC3)n2)cc1OCCCN1CCCC1` [Compound 2, N^4-((1-(2,2-difluoroethyl)piperidin-4-yl)methyl)-N^2-(4-methoxy-3-(3-(pyrrolidin-1-yl)propoxy)phenyl)pyrimidine-2,4-diamine]: the IC50 (Table II) was under 0.1 µM.

Consider `COc1ccc(Nc2nccc(NCC3CCOCC3)n2)cc1OCCCN1CCCC1` [Compound 3, N^2-(4-methoxy-3-(3-(pyrrolidin-1-yl)propoxy)phenyl)-N^4-((tetrahydro-2H-pyran-4-yl)methyl)pyrimidine-2,4-diamine], for which the 50% inhibitory concentration (IC50) (Table II) was under 0.1 µM.

Take `COc1ccc(Nc2nccc(NCC3CCN(CC(F)(F)F)CC3)n2)cc1OCCCN1CCCC1` [Compound 4, N^2-(4-methoxy-3-(3-(pyrrolidin-1-yl)propoxy)phenyl)-N^4-((1-(2,2,2-trifluoroethyl)piperidin-4-yl)methyl)pyrimidine-2,4-diamine]: the IC50 (Table II) is under 0.1 µM.

With `COc1ccc(Nc2nccc(NC3CCOCC3)n2)cc1OCCCN1CCCC1` [Compound 5, N^2-(4-methoxy-3-(3-(pyrrolidin-1-yl)propoxy)phenyl)-N^4-(tetrahydro-2H-pyran-4-yl)pyrimidine-2,4-diamine], the IC50 (Table II) was in the range of 0.1 to 1 µM.

Take `COc1ccc(Nc2nccc(NCC(=O)N3CCOCC3)n2)cc1OCCCN1CCCC1` [Compound 51]: for the setting “Table II”, the IC50 is 0.1 to 1 µM.

Take `COc1ccc(Nc2nccc(NCC(=O)N(C)c3ccccc3)n2)cc1OCCCN1CCCC1` [Compound 52]: the IC50 (Table II) is 1 to 10 µM.

Turning to `COc1ccc(Nc2nccc(N3Cc4cn[nH]c4C3)n2)cc1OCCCN1CCCC1` [Compound 53], the IC50 (Table II) lay within 1 to 10 µM.

Consider `COc1ccc(Nc2nccc(NC3CCN(C(C)=O)CC3)n2)cc1OCCCN1CCCC1` [Compound 54], for which, for the setting “Table II”, the IC50 fell in the range of 0.1 to 1 µM.

Regarding `COc1ccc(Nc2ncc(C)c(NCC3CCN(C(C)=O)CC3)n2)cc1OCCCN1CCCC1` [Compound 55], under “Table II”, the half-maximal inhibitory concentration (IC50) was in the range of 0.1 to 1 µM.

Take `COc1ccc(Nc2nccc(N(C)Cc3ccncc3)n2)cc1OCCCN1CCCC1` [Compound 56]: for the setting “Table II”, the IC50 lay in the range of 1 to 10 µM.

Consider `COc1ccc(Nc2nccc(NCC3CCN(C(C)=O)CC3)n2)cc1COCCN1CC(F)C1` [Compound 57], for which the IC50 (Table II) lay in the range of 1 to 10 µM.

Take `c1cc(Nc2nccc(NCC3CCNCC3)n2)cc(OCCCN2CCCC2)c1` [Compound 88]: for the setting “Table II”, the IC50 fell in the range of 0.1 to 1 µM.

In the case of `COc1ccc(Nc2nccc(NCC3CCNCC3)n2)cc1OCCCN1CCCC1` [Compound 90], the IC50 (Table II) was under 0.1 µM.

Consider `CNc1cc(OC)nc(Nc2ccc(OC)c(OCCCN3CCCC3)c2)n1` [Compound 261, 6-methoxy-N^2-(4-methoxy-3-(3-(pyrrolidin-1-yl)propoxy)phenyl)-N^4-methylpyrimidine-2,4-diamine], for which the IC50 (Table III) is over 10 µM.

As for `CNc1ccnc(Nc2ccc3c(c2)C(=O)N(CCN2CCCC2)CC3)n1` [Compound 264, 7-((4-(methylamino)pyrimidin-2-yl)amino)-2-(2-(pyrrolidin-1-yl)ethyl)-3,4-dihydroisoquinolin-1(2H)-one], the IC50 (Table III) was over 10 µM.

In the case of `COc1ccc(Nc2cccc3[nH]ccc23)cc1OCCCN1CCCC1` [Compound 265, N-(4-methoxy-3-(3-(pyrrolidin-1-yl)propoxy)phenyl)-1H-indol-4-amine], the IC50 (Table III) is over 10 µM.

Take `COc1ccc(Nc2nccc3[nH]ccc23)cc1OCCCN1CCCC1` [Compound 266, N-(4-methoxy-3-(3-(pyrrolidin-1-yl)propoxy)phenyl)-1H-pyrrolo[3,2-c]pyridin-4-amine]: the IC50 (Table III) was 1 to 10 µM.

For the molecule `CNc1nccc(Nc2ccc(OC)c(OCCCN3CCCC3)c2)n1` [Compound 355], the half-inhibitory concentration (IC50) (Table III) was under 0.1 µM.

Consider `CNc1cc(C)nc(Nc2ccc(F)c(OCCCN3CCCC3)c2)n1` [Compound 356], for which the IC50 (Table III) was over 10 µM.

Turning to `CNc1nc(Nc2ccc(OC)c(OCCCN3CCCC3)c2)ncc1C#N` [Compound 357], the IC50 (Table III) is over 10 µM.

Regarding `CNc1nc(Nc2ccc(OC)c(OCCCN3CCCC3)c2)ncc1C(F)(F)F` [Compound 358], the IC50 (Table III) was over 10 µM.

Take `CNc1ncc(C(F)(F)F)c(Nc2ccc(OC)c(OCCCN3CCCC3)c2)n1` [Compound 359]: under “Table III”, the half-maximal inhibitory concentration (IC50) is over 10 µM.

Regarding `CNc1nc(Nc2ccc(OC)c(OCCCN3CCCC3)c2)nc(C)c1F` [Compound 360], the IC50 (Table III) was 0.1 to 1 µM.

As to `CNc1ccnc(Nc2ccc(OC)c(OCCN3CCOCC3)c2)n1` [Compound 361], the IC50 (Table III) lay in the range of 1 to 10 µM.

In the case of `CNc1cc(C(F)(F)F)nc(Nc2ccc(OC)c(OCCCN3CCCC3)c2)n1` [Compound 362], the IC50 (Table III) is over 10 µM.

For the molecule `CNc1ccnc(Nc2ccc3c(c2)N(C(=O)CCN(C)C)CC3)n1` [Compound 363], the IC50 (Table III) is over 10 µM.

Turning to `CCc1cc(NC)nc(Nc2ccc(OC)c(OCCCN3CCCC3)c2)n1` [Compound 364], the IC50 (Table III) was under 0.1 µM.

For the molecule `COc1ccc(Nc2nccc(CNC3CCOCC3)n2)cc1OCCCNc1ccccc1` [Compound 365], the IC50 (Table III) was over 10 µM.

For `COc1ccc(Nc2cnnc(NCC3CCN(C(C)=O)CC3)c2)cc1OCCCN1CCCC1` [Compound 366], where the note is “Table III”, the IC50 fell in the range of 1 to 10 µM.

For the molecule `COc1ccc(Nc2nccc(NCC3CCOCC3)n2)cc1OC1CC2(C1)CN(C)C2` [Compound 367], the half-inhibitory concentration (IC50) (Table III) was over 10 µM.

For the molecule `CNc1ccnc(Nc2ccc(F)c(OCCCN3CCCC3)c2)n1` [Compound 368], the IC50 (Table III) is over 10 µM.

For the molecule `COc1ccc(Nc2nccc(N)n2)cc1OCCCN1CCCC1` [Compound 369], the IC50 (Table III) fell in the range of 0.1 to 1 µM.

Consider `CNc1cnnc(Nc2ccc(OC)c(OCCCN3CCCC3)c2)c1` [Compound 370], for which, where the note is “Table III”, the IC50 lay in the range of 0.1 to 1 µM.

Consider `CNc1cncc(Nc2ccc(OC)c(OCCCN3CCCC3)c2)n1` [Compound 371], for which the IC50 (Table III) is 1 to 10 µM.

As for `CNc1cc(Nc2cc(OCCCN3CCCC3)c(OC)cn2)ccn1` [Compound 372], the IC50 (Table III) is under 0.1 µM.

With `COc1ccc(Nc2nccc3[nH]ncc23)cc1OCCCN1CCCC1` [Compound 373], the IC50 (Table III) is over 10 µM.

Regarding `COc1ccc(Nc2ccnc3[nH]ccc23)cc1OCCCN1CCCC1` [Compound 374], the IC50 (Table III) lay in the range of 1 to 10 µM.

Take `CC(C)Nc1ccnc(Nc2cccc(OCCCN3CC[C@@H](F)C3)c2)n1` [Compound 375]: where the note is “Table III”, the IC50 was over 10 µM.
